According to patent US7879814B2, “Methods and therapeutic compositions in the treatment of advanced cancer” (priority 2003, dated 2011):
Where two headings read alike, the source gives them in different places.

Experiments:
[1] = cited from earlier work; for whole blood ATP concentration higher than pretreatment value (average): 24 hours of infusion
[2] = Pharmacokinetics of ATP on weeks (cycles) 1, 3 and 8 of the Phase I study; format: in vivo, human
Source text: Two of the seven evaluable patients had advanced prostate cancer with bone metastases and one each had advanced mesothelioma, metastatic breast cancer, metastatic melanoma, metastatic colon cancer and renal cell carcinoma.

[3] = system: men with advanced, non-resectable cancer; settings: cited from earlier work
[4] = system: refractory stage IIIB/IV non-small cell lung cancer patients; settings: cited from earlier work
[5] = system: stage IIIB/IV non-small cell lung cancer patients; settings: cited from earlier work
[6] = system: patients with advanced malignancies (solid tumors); test: Phase I study of ATP by 8 hour intravenous infusion once weekly, out-patient (DMS #D0005): safety, tolerability, clinical efficacy; format: in vivo, human
Description: Adenosine 5′-triphosphate (ATP) is provided as a sterile solution in single use vials. […] Storage of the clinical solutions is at controlled refrigerated temperature (2-8° C.). […] The concentration of the final sterile solution is 8 mg/ml and is administered by continuous intravenous infusions using an Ivac or similar infusion device through venous access in a peripheral vein. If venous access is a problem, either a Hickman catheter or its equivalent or an Infusaport or its equivalent, are inserted to provide vascular access. […] All follow-up care is administered in hospital outpatient department or at the patient's home or clinic.
Title of the Study: “A Phase I Study of the Safety and Pharmacokinetics of Adenosine 5′-Triphosphate (ATP) When Administered by Intravenous Infusion on a Multiple Weekly Dose Schedule to Patients with Advanced Malignancies (Solid Tumors)”.
Nine qualified patients have been enrolled in the study as of Jan. 1, 2002; seven of which received the first 3 cycles of the study drug and are therefore evaluable for the primary endpoints. Two of the seven evaluable patients had advanced prostate cancer with bone metastases and one each had advanced mesothelioma, metastatic breast cancer, metastatic melanoma, metastatic colon cancer and renal cell carcinoma.

[7] = 50, 75 or 100 mcg/kg/min, 96 hr infusion once every 4 weeks
[8] = 30-hours infusions, 20 up to 75 mcg/kg/min
[9] = 50 or 65 mcg/kg/min, 96 hours once every 4 weeks, 15 patients
[10] = 50 or 65 mcg/kg/min, 96 hours once every 4 weeks
[11] = week 1 pre-dose to week 13 follow-up

## Nc1ncnc2c1ncn2[C@@H]1O[C@H](COP(=O)(O)OP(=O)(O)OP(=O)(O)O)[C@@H](O)[C@H]1O [ATP, Adenosine 5′-triphosphate]
[1]; 50 mcg/kg/min
  whole blood ATP concentration higher than pretreatment value (average): 63%
[1]; 75 mcg/kg/min
  whole blood ATP concentration higher than pretreatment value (average): 67%
[1]; 100 mcg/kg/min
  whole blood ATP concentration higher than pretreatment value (average): 113%
[1]; interval between 24 and 96 hours of the infusion
  course of blood ATP concentrations: relatively constant or slightly declined
[2]; at 24 hours
  total blood ATP pools after infusion: decline to baseline (time 0)
[2]; time 0 to 8 hours
  average increases in Initial ATP Release Rates (from Red Blood Cells): 200-400%
[2]; time 0 to 8 hours (end of the infusions)
  increases in total blood ATP pools (red blood cell pools): 70-90%
[3]; [7]
  share of all adverse events that were grade 1 or 2 (mild or moderate): 79%
  share of all adverse events that were grade 3 or 4 (severe or life-threatening): 21%
[3]; 96-hours infusions, patients with advanced cancers
  maximum tolerated dose: 50 µg/kg/min
[3]; 96 hr infusions
  events of grade 3 anxiety: one
  events of grade 3 headache: 1 event
  grade 3 or 4 events of chest pain: 5 events
  grade 3 or 4 events of dizziness: 1 event
  grade 3 or 4 events of dyspnea: 6 events
  grade 3 or 4 events of hypotension: 1 event
  grade 3 or 4 events of hypoxia: 2 events
  grade 3 or 4 events of nausia/emesis: 2 events
[4]; [8]
  adverse events of grade 1 (mild): 81
  adverse events of grade 2 (moderate): 5
  adverse events of grade 3 (severe): none
  adverse events of grade 4 (life threatening): 5
[4]; 30-hours infusions
  electrocardiograms in patients with chest discomfort: did not exhibit changes suggestive of myocardial ischemia
[4]; ATP plus best supportive care vs best supportive care only
  effects on body weight, voluntary muscle strength and Quality of Life domains: beneficial effects
[4]; after lowering the rate of ATP infusion
  resolution of side effects: resolved within minutes
[5]; [9]
  patients reporting severe (grade 3) adverse effects: Six
  patients with life-threatening (grade 4) dyspnea: two
[5]; [10]
  disease status after treatment: the majority of patients exhibited stable disease
  hematologic, renal, hepatic, or gastrointestinal toxicity: No significant
  tumor shrinking: no significant tumor shrinking was observed
[5]; non-small cell lung cancer patients
  effects on weight gain, performance status and overall survival: beneficial effects
[6]; 8 hour iv infusion once weekly, up to 100 mcg/kg/min
  grade 2 cardiac ischemia or grades 3 or 4 toxicity: No grade 2 cardiac ischemia or grades 3 or 4 toxicity have been observed
[6]; all patients, screening to week 10 (follow-up), return to screening baseline at week 13
  appetite loss: Decreases
[6]; all patients, week 1 (pre-dose) to week 13 (follow-up)
  SGOT, SGPT and serum LDH: Consistent decreases
[6]; continuous 8 hours iv infusion once weekly for eight weeks, seven of nine patients (the seven evaluable)
  maximum allowable dose tolerated: 100 µg/kg/min
[6]; during the study, several patients
  appetite and energy (subjective patient comments): improved appetite and energy
[6]; patient 506
  tolerability in terminal patients: well tolerated
[6]; screening (week <1) to follow-up (week 10), decline at week 13 follow-up
  Global Health Status of the QOL EORTC QLQ-C30: Increases
[6]; screening (week <1) to week 8 (last infusion cycle)
  Skeletal Muscle Strength (voluntary): Small increases
[6]; [11]
  Kamofsky Performance Status: Small increases
  body weight: Stabilization
